Results published in patent publication US20140166543A1, “SYSTEM AND PROCESS FOR RECOVERING BITUMEN FROM OIL SANDS” (Shell Oil Company, priority 2012, published 2014).

Test: Viscosity of crude blended with dimethyl sulfide (rheometer)
Format: physicochemical
Description: The quality of dimethyl sulfide as an oil recovery agent based on the crude oil viscosity lowering properties of dimethyl sulfide was evalulated. Three crude oils having widely disparate viscosity characteristics—an African Waxy crude, a Middle Eastern asphaltic crude, and a Canadian asphaltenic crude—were blended with dimethyl sulfide. A control sample of each crude was prepared containing no dimethyl sulfide, and samples of each crude were prepared and blended with dimethyl sulfide to prepare crude samples containing increasing concentrations of dimethyl sulfide. Each sample of each of the crudes was heated to 60° C. to dissolve any waxes therein and to permit weighing of a homogeneous liquid, weighed, allowed to cool overnight, then blended with a selected quantity of dimethyl sulfide. The samples of the crude/dimethyl sulfide blend were then heated to 60° C. and mixed to ensure homogeneous blending of the dimethyl sulfide in the samples. Absolute (dynamic) viscosity measurements of each of the samples were taken using rheometer and closed cup sensor assembly. Viscosity measurements of each of the samples of the West African waxy crude and the Middle Eastern asphaltic crude were taken at 20° C., 40° C., 60° C., 80° C., and then again at 20° C. after cooling from 80° C., where the second measurement at 20° C. is taken to measure the viscosity without the presence of waxes since wax formation occurs slowly enough to permit viscosity measurement at 20° C. without the presence of wax. Viscosity measurements of each of the samples of the Canadian asphaltenic crude were taken at 5° C., 10° C., 20° C., 40° C., 60° C., 80° C., The measured viscosities for each of the crudes are shown in Tables 3, 4, and 5 below.

## CSC [Dimethyl Sulfide, dimethyl sulfide]
DMS 1.43 wt. %, 20° C.
  Viscosity of Topped Canadian asphaltenic Crude: 212525 mPa s
DMS 1.43 wt. %, 40° C.
  Viscosity of Topped Canadian asphaltenic Crude: 14721 mPa s
DMS 1.43 wt. %, 60° C.
  Viscosity of Topped Canadian asphaltenic Crude: 2209 mPa s
DMS 1.43 wt. %, 80° C.
  Viscosity of Topped Canadian asphaltenic Crude: 538 mPa s
DMS 2.07 wt. %, 20° C.
  Viscosity of Topped Canadian asphaltenic Crude: 134880 mPa s
DMS 2.07 wt. %, 40° C.
  Viscosity of Topped Canadian asphaltenic Crude: 10523 mPa s
DMS 2.07 wt. %, 60° C.
  Viscosity of Topped Canadian asphaltenic Crude: 1747 mPa s
DMS 2.07 wt. %, 80° C.
  Viscosity of Topped Canadian asphaltenic Crude: 427 mPa s
DMS 4.87 wt. %, 20° C.
  Viscosity of Topped Canadian asphaltenic Crude: 28720 mPa s
DMS 4.87 wt. %, 40° C.
  Viscosity of Topped Canadian asphaltenic Crude: 3235 mPa s
DMS 4.87 wt. %, 60° C.
  Viscosity of Topped Canadian asphaltenic Crude: 985 mPa s
DMS 4.87 wt. %, 80° C.
  Viscosity of Topped Canadian asphaltenic Crude: 328 mPa s
DMS 8.01 wt. %, 20° C.
  Viscosity of Topped Canadian asphaltenic Crude: 5799 mPa s
DMS 8.01 wt. %, 40° C.
  Viscosity of Topped Canadian asphaltenic Crude: 982 mPa s
DMS 8.01 wt. %, 60° C.
  Viscosity of Topped Canadian asphaltenic Crude: 275 mPa s
DMS 8.01 wt. %, 80° C.
  Viscosity of Topped Canadian asphaltenic Crude: 106 mPa s
DMS 9.80 wt. %, 20° C.
  Viscosity of Topped Canadian asphaltenic Crude: 2760 mPa s
DMS 9.80 wt. %, 40° C.
  Viscosity of Topped Canadian asphaltenic Crude: 571 mPa s
DMS 9.80 wt. %, 60° C.
  Viscosity of Topped Canadian asphaltenic Crude: 173 mPa s
DMS 9.80 wt. %, 80° C.
  Viscosity of Topped Canadian asphaltenic Crude: 73 mPa s
DMS 14.81 wt. %, 5° C.
  Viscosity of Topped Canadian asphaltenic Crude: 1794 mPa s
DMS 14.81 wt. %, 10° C.
  Viscosity of Topped Canadian asphaltenic Crude: 1155 mPa s
DMS 14.81 wt. %, 20° C.
  Viscosity of Topped Canadian asphaltenic Crude: 548 mPa s
DMS 14.81 wt. %, 40° C.
  Viscosity of Topped Canadian asphaltenic Crude: 159 mPa s
DMS 14.81 wt. %, 60° C.
  Viscosity of Topped Canadian asphaltenic Crude: 64 mPa s
DMS 14.81 wt. %, 80° C.
  Viscosity of Topped Canadian asphaltenic Crude: 32 mPa s
DMS 19.78 wt. %, 20° C.
  Viscosity of Topped Canadian asphaltenic Crude: 188 mPa s
DMS 19.78 wt. %, 40° C.
  Viscosity of Topped Canadian asphaltenic Crude: 69 mPa s
DMS 19.78 wt. %, 60° C.
  Viscosity of Topped Canadian asphaltenic Crude: 33 mPa s
DMS 19.78 wt. %, 80° C.
  Viscosity of Topped Canadian asphaltenic Crude: 19 mPa s
DMS 29.88 wt. %, 5° C.
  Viscosity of Topped Canadian asphaltenic Crude: 113 mPa s
DMS 29.88 wt. %, 10° C.
  Viscosity of Topped Canadian asphaltenic Crude: 81 mPa s
DMS 29.88 wt. %, 20° C.
  Viscosity of Topped Canadian asphaltenic Crude: 51 mPa s
DMS 29.88 wt. %, 40° C.
  Viscosity of Topped Canadian asphaltenic Crude: 22 mPa s
DMS 29.88 wt. %, 60° C.
  Viscosity of Topped Canadian asphaltenic Crude: 13 mPa s
DMS 29.88 wt. %, 80° C.
  Viscosity of Topped Canadian asphaltenic Crude: 8 mPa s
DMS 39.61 wt. %, 5° C.
  Viscosity of Topped Canadian asphaltenic Crude: 23 mPa s
DMS 39.61 wt. %, 10° C.
  Viscosity of Topped Canadian asphaltenic Crude: 20 mPa s
DMS 39.61 wt. %, 20° C.
  Viscosity of Topped Canadian asphaltenic Crude: 14 mPa s
DMS 39.61 wt. %, 40° C.
  Viscosity of Topped Canadian asphaltenic Crude: 8 mPa s
DMS 39.61 wt. %, 60° C.
  Viscosity of Topped Canadian asphaltenic Crude: 6 mPa s
DMS 39.61 wt. %, 80° C.
  Viscosity of Topped Canadian asphaltenic Crude: 4 mPa s
